Data set [1] addresses T1, human A3 adenosine receptors (Homo sapiens, UniProt P0DMS8).
T1 sequence (P0DMS8 1-318): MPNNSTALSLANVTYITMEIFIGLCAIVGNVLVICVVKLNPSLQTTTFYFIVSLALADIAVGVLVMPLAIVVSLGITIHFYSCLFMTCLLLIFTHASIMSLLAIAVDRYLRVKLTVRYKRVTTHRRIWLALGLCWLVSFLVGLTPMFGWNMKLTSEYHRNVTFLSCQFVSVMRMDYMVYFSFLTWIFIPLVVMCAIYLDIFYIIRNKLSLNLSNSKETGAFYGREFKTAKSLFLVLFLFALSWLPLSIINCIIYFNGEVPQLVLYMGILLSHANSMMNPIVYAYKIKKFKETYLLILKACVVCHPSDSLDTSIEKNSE
The data set is described as follows: Displacement of [125I]AB MECA binding at human A3 adenosine receptors expressed in HEK-293 cells. Also on record: expressed in transfected cells. The settings on record: Table 2, footnote a: [125I]AB MECA, human A3, HEK-293 cells. (In general: In a radioligand displacement assay an active substance lowers the binding of a labelled ligand.)

Data set [2] can be described thus: Water solubility (stated in words). The class given is physicochemical.
Data set [3] addresses T2, human A2A adenosine receptors (Homo sapiens, UniProt P29274).
T2 construct: expressed in transfected cells; host or cells: CHO cells
The data set is described as follows: Displacement of [3H]SCH58261 binding at human A2A adenosine receptors expressed in CHO cells. Particulars: for Ki: CHO cells.

The target in data set [4] is T1, human A3 adenosine receptors. The data set is described as follows: Displacement of [3H]MRE 3008F20 binding at human A3 adenosine receptors expressed in CHO cells. Also on record: expressed in transfected cells; host or cells: CHO cells. Particulars: for selectivity for A3 versus the other adenosine receptor subtypes / affinity for / interaction with A3 adenosine receptor subtype: in words; for affinity for / interaction with A3 adenosine receptor subtype: discussion of Tables 2 and 3.

Data set [5] addresses T3, human A1 adenosine receptors (Homo sapiens, UniProt P30542).
T3 construct: expressed in transfected cells; host or cells: CHO cells
T3 sequence (P30542 1-326): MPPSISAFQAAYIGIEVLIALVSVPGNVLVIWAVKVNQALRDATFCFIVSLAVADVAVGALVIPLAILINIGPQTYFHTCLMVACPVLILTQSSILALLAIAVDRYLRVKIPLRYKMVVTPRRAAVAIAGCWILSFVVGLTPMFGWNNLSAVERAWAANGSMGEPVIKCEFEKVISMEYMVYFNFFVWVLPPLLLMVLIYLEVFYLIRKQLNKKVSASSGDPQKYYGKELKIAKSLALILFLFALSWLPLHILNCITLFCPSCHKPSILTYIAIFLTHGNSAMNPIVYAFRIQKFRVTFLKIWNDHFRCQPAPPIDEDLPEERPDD
Put plainly: Displacement of [3H]DPCPX binding at human A1 adenosine receptors expressed in CHO cells.

Data set [6] addresses T4, human A2B adenosine receptors (Homo sapiens, UniProt P29275).
T4 construct: expressed in transfected cells; host or cells: HEK-293 cells
T4 sequence (P29275 1-332): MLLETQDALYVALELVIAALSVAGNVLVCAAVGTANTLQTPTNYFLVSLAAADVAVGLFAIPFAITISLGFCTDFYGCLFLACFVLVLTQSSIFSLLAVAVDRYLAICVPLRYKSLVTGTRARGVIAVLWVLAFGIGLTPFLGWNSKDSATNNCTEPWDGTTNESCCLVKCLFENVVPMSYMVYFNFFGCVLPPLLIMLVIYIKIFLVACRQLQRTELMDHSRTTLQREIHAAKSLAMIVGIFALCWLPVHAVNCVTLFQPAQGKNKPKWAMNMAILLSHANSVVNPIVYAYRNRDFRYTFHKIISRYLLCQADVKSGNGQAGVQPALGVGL
Put plainly: Displacement of [3H]DPCPX binding at human A2B adenosine receptors expressed in HEK-293 cells.

Setting [7] is: Table 3: [3H]SCH58261, human A2A.
[8] abbreviates: Table 3: [3H]MRE 3008F20, human A3, CHO cells.
Setting [9] is: Table 3: [3H]DPCPX, human A1, CHO cells.
The mark [10] stands for this setting: Table 3: [3H]DPCPX, HEK-293 cells.

A value given as a limit tells only on which side of the number the result lay.

T2 sequence (P29274 whole entry): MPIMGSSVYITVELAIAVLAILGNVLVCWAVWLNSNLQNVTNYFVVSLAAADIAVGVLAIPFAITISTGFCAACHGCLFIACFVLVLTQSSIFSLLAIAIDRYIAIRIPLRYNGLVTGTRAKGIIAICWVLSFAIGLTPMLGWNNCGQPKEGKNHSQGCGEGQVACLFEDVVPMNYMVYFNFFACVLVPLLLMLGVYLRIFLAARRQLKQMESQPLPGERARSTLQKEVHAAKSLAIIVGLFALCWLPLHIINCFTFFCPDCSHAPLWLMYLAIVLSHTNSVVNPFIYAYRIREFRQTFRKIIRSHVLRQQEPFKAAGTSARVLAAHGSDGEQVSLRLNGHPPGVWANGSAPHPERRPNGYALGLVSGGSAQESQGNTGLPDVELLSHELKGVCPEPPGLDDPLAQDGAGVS

The term Ki denotes a dissociation constant, usually derived from enzyme kinetics or from competition with a known ligand. The molecule `Nc1nc2c(cnn2CCc2ccccc2)c2nc(-c3ccco3)nn12` [SCH 58261, 5-amino-7-(2-phenylethyl)-2-(2-furyl)pyrazolo[4,3-e]1,2,4-triazolo[1,5-c]pyrimidine] yielded an inhibitory constant (Ki) in data set [1] of more than 1000 nM.
For the molecule `CSc1c2c(nc(N)n3nc(-c4ccc(CN5CCN(C)CC5)o4)nc23)nn1C` [Compound 56], in data set [2], the water solubility result was “significant water solubility”.
As for `CCNc1c2c(nc(NC(=O)Nc3ccc(OC)cc3)n3nc(-c4ccco4)nc23)nn1C.Cl` [Compound 55, 1-(9-Ethylamino-2-furan-2-yl-8-methyl-8H-pyrazolo[4,3-e][1,2,4]triazolo[1,5-c]pyrimidin-5-yl)-3-(4-methoxy-phenyl)-urea hydrochloride salt], the Ki is 16 nM in data set [3] (setting [7]); 9 nM in data set [4] (setting [8]); 100 nM in data set [5] (Table 3: [3H]DPCPX, human A1, CHO cells, hydrochloride salt); 23 nM in data set [6] (Table 3: [3H]DPCPX, HEK-293 cells, hydrochloride salt). In addition, in data set [4], the “selectivity for A3 versus the other adenosine receptor subtypes” value is reported as “very low”. In addition, the “affinity for / interaction with A3 adenosine receptor subtype” value (shortened to “affinity for / interaction”) in data set [4] is reported as “increased”. Also, in data set [2], the water solubility entry is given as “complete water solubility”.
As for `COc1ccc(CC(=O)Nc2nc3nn(C)c(SC)c3c3nc(-c4ccco4)nn23)cc1` [Compound 47, N-(2-Furan-2-yl-8-methyl-9-methylsulfanyl-8H-pyrazolo[4,3-e][1,2,4]triazolo[1,5-c]pyrimidin-5-yl)-2-(4-methoxy-phenyl)-acetamide], the Ki in data set [3] (setting [7]) stood at 15 nM; in data set [5] (setting [9]) it was 80 nM; in data set [6] (setting [10]) it was 45 nM. In addition, the “affinity for A2A adenosine receptor subtype” value in data set [3] (in words, discussion of Tables 2 and 3) is on record as “maintains A2A affinity”. The “affinity for / interaction” value in data set [4] is “decreased”.
With `CCNc1c2c(nc(NC(=O)Cc3ccc4c(c3)OCO4)n3nc(-c4ccco4)nc23)nn1C` [Compound 50, 2-Benzo[1,3]dioxol-5-yl-N-(9-ethylamino-2-furan-2-yl-8-methyl-8H-pyrazolo[4,3-e][1,2,4]triazolo[1,5-c]pyrimidin-5-yl)-acetamide], the Ki in data set [3] (setting [7]) came to 61 nM; in data set [4] (setting [8]), 183 nM; in data set [5] (setting [9]), 136 nM; in data set [6] (setting [10]), 65 nM.
For the molecule `CCOc1ccccc1-c1nc2c3cnn(CCc4ccccc4)c3nc(N)n2n1` [Compound 5c, 2-(2-Ethoxy-phenyl)-7-phenethyl-7H-pyrazolo[4,3-e][1,2,4]triazolo[1,5-c]pyrimidin-5-ylamine], the inhibitory constant (Ki) in data set [3] (Table 2, footnote b: [3H]SCH58261, human A2A) was more than 1000 nM; in data set [4] (Table 2, footnote b: [3H]MRE 3008F20, human A3, CHO cells) it was 348 nM; in data set [5] (Table 2, footnote b: [3H]DPCPX, human A1), more than 1000 nM; in data set [6] (Table 2, footnote b: [3H]DPCPX), more than 1000 nM. Also, the “selectivity for A3 versus the other adenosine receptor subtypes” value in data set [4] is given as “complete selectivity”. Besides, the “affinity for / interaction” value in data set [4] is recorded as “poor affinity”.
Consider `CSc1c2c(nc(NC(=O)Cc3ccc4c(c3)OCO4)n3nc(-c4ccco4)nc23)nn1C` [Compound 49, 2-Benzo[1,3]dioxol-5-yl-N-(2-furan-2-yl-8-methyl-9-methylsulfanyl-8H-pyrazolo[4,3-e][1,2,4]triazolo[1,5-c]pyrimidin-5-yl)-acetamide], for which the Ki worked out at 4.1 nM in data set [3] (setting [7]), 110 nM in data set [4] (setting [8]), 70 nM in data set [5] (setting [9]) and 30 nM in data set [6] (setting [10]). The “affinity for / interaction” value in data set [4] is given as “decreased”.

The record behind these values is patent publication US7064204B2, “Pharmaceutically active compounds having a tricyclic pyrazolotriazolopyrimidine ring structure and methods of use” (King Pharmacueticals Reserch and Development, Inc., priority 2002, dated 2006).
